Source: US6355785B1, “Guanosine-rich oligonucleotide integrase inhibitors” (Aronex Pharmaceuticals, Inc., priority 1993, dated 2002)
Where two headings read alike, the source gives them in different places.

Tests used:
[1] = system: HIV-1 laboratory isolates; test: HIV-1 infection of PBMCs (p24); type: cell-based; details: read-out: IC50 viral production
HIV-1 clinical isolates = test: microbe, parasite or virus in culture; type: cell-based
HIV-1IIIB = test: Time of drug addition study, MT-4 cells (p24); type: cell-based; details: 100-fold IC50, MOI 1, p24 at 29 hour
[2] = molecular target: recombinant HIV-1 integrase (wild-type) (Human immunodeficiency virus type 1 group M subtype B, UniProt P12497); test: HIV-1 integrase 3′-processing and strand transfer assays; type: biochemical; parameters: Purified recombinant HIV-1 integrase enzyme (wild-type) was a generous gift from Dr. R. Craigie; purchased gift of Dr. R. Craigie, Laboratory of Molecular Biology, NIDDK (not bought)
[3] = parameters: species or system cynomolgus monkeys; details: cynomolgus monkey, in vivo
Description: Dosing. Twelve experimentally naive cynomolgus monkeys were assigned to four groups of three animals each. Prior to dosing, each animal was lightly sedated with a combination of ketamine (1 0 mg/kg) and diazepam (0.5 mg/kg), and a catheter was introduced into the femoral artery for recording central arterial pressure. Monkeys were given a single intravenous infusion of 5, 20, or 50 mg AR177/kg or saline over ten minutes through a cephalic vein catheter using a Harvard infusion pump. Arterial blood samples were drawn at −10, +10, +20, +40, +60 and +120 minutes relative to the initiation of infusion into EDTA-containing tubes for hematology, complement factors, coagulation assay, serum chemistry, and plasma AR177 determination. At 24 hours post-infusion, blood was drawn via the femoral vein into EDTA-containing tubes for these same parameters. The concentration of AR177 in dosing solutions was confirmed post experiment by absorbance at 280 nm on a spectrophotometer. For the determination of AR177 by HPLC, the plasma fraction was obtained by low speed centrifugation of blood, and stored at −20° C. until used. Electrocardiograms (ECGs), central pressure, and heart rate were recorded continuously for 120 minutes following the initiation of doing. Table E-1 summarizes the study design. The animals were observed twice daily pharmacotoxic signs and general health beginning two days before dosing and for seven days following dosing. The monkeys were not necropsied at the end of the study.
Hematology and coagulation parameters. The following are determined: red blood cell count and morphology, total and differential white blood cells, hemoglobin, hematocrit, prothrombin time, fibrinogen, mean cell hemoglobin, mean corpuscular volume, mean corpuscular hemoglobin concentration, platelet count, and activated partial thromboplastin time. Hematology parameters were determined at Sierra Nevada Laboratories (Reno, Nev.).

[4] = 3′-processing, read-out: Anti-Integrase Assay IC50 3′-proc
[5] = strand transfer, read-out: Anti-Integrase Assay IC50 strand tran.

Cc1cn([C@H]2C[C@H](N=[N+]=[N-])[C@@H](CO)O2)c(=O)[nH]c1=O [AZT, 3′-azido-3′-deoxythymidine]
IC50 ([1]; Human immunodeficiency virus 1, IIIB, PBMC, HIV-1 IIIB): 3 ± 0.2 nM | IC50 ([1]; Human immunodeficiency virus 1, PBMC, HIV-1 JRCSF): 2.5 ± 1 nM | IC50 ([1]; Human immunodeficiency virus 1, PBMC, HIV-1 MN): 53 ± 1 nM | IC50 ([1]; Human immunodeficiency virus 1, PBMC, HIV-1 RF): 272 ± 3 nM | IC50 (HIV-1 clinical isolates; Human immunodeficiency virus 1, read-out: IC50 values over the clinical isolates tested in PBLs, range over isolates): 10 to 1650 nM | IC50 (HIV-1 clinical isolates; Human immunodeficiency virus 1, read-out: IC50 viral production, PBLs, clinical isolate 942716): 2 ± 3 nM | IC50 (HIV-1 clinical isolates; Human immunodeficiency virus 1, read-out: IC50 viral production, PBLs, clinical isolate 942751): 28 ± 2.5 nM | IC50 (HIV-1 clinical isolates; Human immunodeficiency virus 1, read-out: IC50 viral production, PBLs, clinical isolate BAKI (SI)): 20 ± 6 nM | IC50 (HIV-1 clinical isolates; Human immunodeficiency virus 1, read-out: IC50 viral production, PBLs, clinical isolate BLCH (NSI)): 22 ± 0.8 nM | IC50 (HIV-1 clinical isolates; Human immunodeficiency virus 1, read-out: IC50 viral production, PBLs, clinical isolate JOGA (NSI)): > 1000 nM | IC50 (HIV-1 clinical isolates; Human immunodeficiency virus 1, read-out: IC50 viral production, PBLs, clinical isolate N. Amer. #1): 10 ± 4 nM | IC50 (HIV-1 clinical isolates; Human immunodeficiency virus 1, read-out: IC50 viral production, PBLs, clinical isolate N. Amer. #2): 1650 ± 7 nM | IC50 (HIV-1 clinical isolates; Human immunodeficiency virus 1, read-out: IC50 viral production, PBLs, clinical isolate ROJO (SI)): 52 ± 0.4 nM | IC50 (HIV-1 clinical isolates; Human immunodeficiency virus 1, read-out: IC50 viral production, PBLs, clinical isolate S. E. Asia): 60 ± 5 nM | IC50 (HIV-1 clinical isolates; Human immunodeficiency virus 1, read-out: IC50 viral production, PBLs, clinical isolate VIHU (NSI)): 36 ± 0.7 nM | IC50 (HIV-1 clinical isolates; Human immunodeficiency virus 1, read-out: IC50 viral production, PBLs, clinical isolate WEJO (SI)): 17 ± 0.1 nM | IC50 (HIV-1 clinical isolates; Human immunodeficiency virus 1, read-out: IC50 viral production, PBLs, clinical isolate WOME (SI)): 25 ± 0.3 nM | delay of drug addition post-infection at which inhibitory effect is lost (HIV-1IIIB): 3 or 4 hours post-infection | IC50 [2, 4]: > 1000 nM | IC50 [2, 5]: > 1000 nM

5′-gtggtgggtgggtgggt-3′ [T30177] (GTGGTGGGTGGGTGGGT; phosphorothioate termini, further chemistry not given here) [pPT version of parent compound I100-15, 17 mer]
IC50 (HIV-1 clinical isolates; PBLs, clinical isolate 942716, read-out: IC50 viral production): 860 ± 6 nM | IC50 (HIV-1 clinical isolates; PBLs, clinical isolate 942751, read-out: IC50 viral production): 380 ± 3 nM | IC50 (HIV-1 clinical isolates; PBLs, clinical isolate BAKI (SI), read-out: IC50 viral production): 230 ± 5 nM | IC50 (HIV-1 clinical isolates; PBLs, clinical isolate BLCH (NSI), read-out: IC50 viral production): 3080 ± 6 nM | IC50 (HIV-1 clinical isolates; PBLs, clinical isolate JOGA (NSI), read-out: IC50 viral production): 330 ± 4 nM | IC50 (HIV-1 clinical isolates; PBLs, clinical isolate N. Amer. #1, read-out: IC50 viral production): 250 ± 3 nM | IC50 (HIV-1 clinical isolates; PBLs, clinical isolate N. Amer. #2, read-out: IC50 viral production): 2920 ± 5 nM | IC50 (HIV-1 clinical isolates; PBLs, clinical isolate ROJO (SI), read-out: IC50 viral production): 3900 ± 20 nM | IC50 (HIV-1 clinical isolates; PBLs, clinical isolate S. E. Asia, read-out: IC50 viral production): 580 ± 3 nM | IC50 (HIV-1 clinical isolates; PBLs, clinical isolate VIHU (NSI), read-out: IC50 viral production): 1300 ± 20 nM | IC50 (HIV-1 clinical isolates; PBLs, clinical isolate WEJO (SI), read-out: IC50 viral production): 300 ± 10 nM | IC50 (HIV-1 clinical isolates; PBLs, clinical isolate WOME (SI), read-out: IC50 viral production): 710 ± 2 nM | no effect plasma AR177 concentration versus aPTT [3]: 60-100 ug AR177/mL | plasma AR177 concentration at doubling of aPTT [3]: 100-250 ug AR177/mL | plasma AR177 concentration at tripling of aPTT [3]: 250-300 fig AR177/mL | increase in potency (3′-processing) with magnesium instead of manganese [2]: four to five-fold | IC50 [2, 4]: 92 nM | IC50 ([2]; HIV-1 integrase, read-out: IC50 3′-processing): 55 nM | IC50 ([2]; read-out: Enzyme IC50 3-′process): 49 nM | IC50 ([2]; read-out: Enzyme IC50 Stran Trans): 79 nM | IC50 [2, 5]: 46 nM

5′-gtggtgggtgggtgggt-3′ (GTGGTGGGTGGGTGGGT; phosphorothioate termini, further chemistry not given here) [T30177, pPT version of parent compound I100-15, 17 mer]
IC50 ([1]; HIV-1 IIIB): 120 nM | IC50 ([1]; HIV-1 JRCSF): 280 ± 40 nM | IC50 ([1]; HIV-1 MN): 1350 ± 100 nM | IC50 ([1]; HIV-1 RF): 750 ± 130 nM | delay of drug addition post-infection at which inhibitory effect is lost (HIV-1IIIB): one hour | anticoagulant potency, less potent than thrombin-binding aptamer oligonucleotide [3]: 40 fold | hematology values [3]: no changes in hematology values attributable to AR177
